Reference: patent US20100105904A1, “UREA TYPE CINNAMIDE DERIVATIVE” (priority 2006, published 2010)

Test system: Aβ42 production
Assay: Quantification of Aβ peptide in neuronal culture from rat fetus brain (Aβ ELISA)
Assay type: cell-based
Conditions: 72 h; rat primary neuronal culture (cerebral cortex, embryonic day 18 Wistar rats); medium collected three days after addition of compound; Aβx-42 ELISA; read-out: Aβ42 production reducing effect IC50
Method: Quantification of Aβ Peptide in Neuronal Culture from Rat Fetus Brain
Primary neuronal cultures were prepared from the cerebral cortex of embryonic day 18 Wistar rats (Charles River Japan, Yokohama, Japan). Specifically, the embryos were aseptically removed from pregnant rats under ether anesthesia. The brain was isolated from the embryo and immersed in an ice-cold L-15 medium (such as Invitrogen Corp. Cat #11415-064, Carlsbad, Calif., USA, or SIGMA L1518). The cerebral cortex was collected from the isolated brain under a stereoscopic microscope. The cerebral cortex fragments collected were enzymatically treated in an enzyme solution containing 0.25% trypsin (Invitrogen Corp. Cat #15050-065, Carlsbad, Calif., USA) and 0.01% DNase (Sigma D5025, St. Louis, Mo., USA) at 37° C. for 30 minutes to disperse the cells. Here, the enzymatic reaction was stopped by adding inactivated horse serum to the solution. The enzymatically treated solution was centrifuged at 1,500 rpm for five minutes to remove the supernatant. 5 to 10 ml of a medium was added to the resulting cell mass. Neurobasal medium (Invitrogen Corp. Cat #21103-049, Carlsbad, Calif., USA) supplemented with 2% B27 supplement (Invitrogen Corp. Cat #17504-044, Carlsbad, Calif., USA), 25 μM 2-mercaptoethanol (2-ME, WAKO Cat #139-06861, Osaka, Japan), 0.5 mM L-glutamine (Invitrogen Corp. Cat #25030-081, Carlsbad, Calif., USA), and Antibiotics-Antimycotics (Invitrogen Corp. Cat #15240-062, Carlsbad, Calif., USA) was used as the medium (Neurobasal/B27/2-ME). However, the above Neurobasal medium not supplemented with 2-ME (Neurobasal/B27) was used for the assay. The cells were redispersed by mild pipetting of the cell mass to which the medium was added. The cell dispersion was filtered through a 40-μm nylon mesh (Cell Strainer, Cat #35-2340, Becton Dickinson Labware, Franklin Lakes, N.J., USA) to remove the remaining cell mass, and thus a neuronal cell suspension was obtained. The neuronal cell suspension was diluted with the medium and then plated in a volume of 100 μl/well at an initial cell density of 5×10^5 cells/cm^2 in a 96-well polystyrene culture plate pre-coated with poly-L or D-lysine (Falcon Cat #35-3075, Becton Dickinson Labware, Franklin Lakes, N.J., USA coated with poly-L-lysine using the method shown below, or BIOCOAT™ cell environments Poly-D-lysine cell ware 96-well plate, Cat #35-6461, Becton Dickinson Labware, Franklin Lakes, N.J., USA). Poly-L-lysine coating was carried out as follows. 100 μg/ml of a poly-L-lysine (SIGMA P2636, St. Louis, Mo., USA) solution was aseptically prepared with a 0.15 M borate buffer (pH 8.5). […] of the solution was added to the 96-well polystyrene culture plate and incubated at room temperature for one or more hours or at 4° C. overnight or longer. The coated 96-well polystyrene culture plate was washed with sterile water four or more times, and then dried or rinsed with, for example, sterile PBS or medium, and used for cell plating. The plated cells were cultured in the culture plate at 37° C. in 5% CO2-95% air for one day. Then, the total amount of the medium was replaced with a fresh Neurobasal™/B27/2-ME medium, and then the cells were cultured for further three days.
The drug was added to the culture plate on Day 4 of culture as follows. The total amount of the medium was removed from the wells, and 180 μl/well of Neurobasal medium not containing 2-ME and containing 2% B-27 (Neurobasal/B27) was added thereto. A solution of the test compound in dimethyl sulfoxide (hereinafter abbreviated as DMSO) was diluted with Neurobasal/B27 to a concentration 10-fold higher than the final concentration. 20 μl/well of the dilution was added to and sufficiently mixed with the medium. The final DMSO concentration was 1% or less. Only DMSO was added to the control group.
The cells were cultured for three days after addition of the compound, and the total amount of the medium was collected. The resulting medium was used as an ELISA sample. […]

SMILES | IC50 [nM]
COc1cc(NC(=O)NCC2c3ccccc3-c3ccccc32)ccc1-n1ccnc1 [Example 6, 1-(9H-fluoren-9-ylmethyl)-3-[4-(1H-imidazol-1-yl)-3-methoxyphenyl]urea] | 5200
COc1cc(NC(=O)NCc2ccc(Cl)c(Cl)c2)ccc1-n1cnc(C)c1 [Example 8, 1-(3,4-dichlorobenzyl)-3-[3-methoxy-4-(4-methyl-1H-imidazol-1-yl)phenyl]urea] | 1710
COc1cc(NC(=O)N[C@@H](C)c2ccc(F)cc2)ccc1-n1cnc(C)c1 [Example 10, 1-[(S)-1-(4-fluorophenyl)ethyl]-3-[3-methoxy-4-(4-methyl-1H-imidazol-1-yl)phenyl]urea] | 1220
COc1cc(NC(=O)NCCc2ccc(Cl)c(Cl)c2)ccc1-n1cnc(C)c1 [Example 11, 1-[2-(3,4-dichlorophenyl)ethyl]-3-[3-methoxy-4-(4-methyl-1H-imidazol-1-yl)phenyl]urea] | 970
COc1cc(NC(=O)NCC2(c3ccccc3)Cc3ccccc3C2)ccc1-n1cnc(C)c1 [Example 15, 1-[3-methoxy-4-(4-methyl-1H-imidazol-1-yl)phenyl]-3-(2-phenyl-indan-2-ylmethyl)urea monotrifluoroacetate] | 160
COc1cc(NC(=O)N2CCCCC2CCc2ccccc2F)ccc1-n1cnc(C)c1 (centres unmarked) [Example 16, 2-[2-(2-fluorophenyl)ethyl]piperidine-1-carboxylic acid [3-methoxy-4-(4-methyl-1H-imidazol-1-yl)phenyl]amide monotrifluoroacetate] | 1420
COc1cc(NC(=O)NC(Cc2ccccc2)c2ccccc2)ccc1-n1cnc(C)c1 (centres unmarked) [Example 17, 1-(1,2-diphenyl-ethyl)-[3-methoxy-4-(4-methyl-1H-imidazol-1-yl)phenyl]urea monotrifluoroacetate] | 560
COc1cc(NC(=O)NCCCc2ccccc2)ccc1-n1cnc(C)c1 [Example 18, 1-[3-methoxy-4-(4-methyl-1H-imidazol-1-yl)phenyl]-3-(3-phenylpropyl)urea monotrifluoroacetate] | 860
COc1cc(NC(=O)NCc2cc(F)c(F)c(F)c2)ccc1-n1cnc(C)c1 [Example 19, 1-[3-methoxy-4-(4-methyl-1H-imidazol-1-yl)phenyl]-3-(3,4,5-trifluorobenzyl)urea monotrifluoroacetate] | 2070
COc1cc(NC(=O)N2CCC(c3ccccc3)CC2)ccc1-n1cnc(C)c1 [Example 20, 4-phenyl-piperidine-1-carboxylic acid [3-methoxy-4-(4-methyl-1H-imidazo1-1-yl)phenyl]amide monotrifluoroacetate] | 1610
COc1cc(NC(=O)N2CCCC(c3ccccc3)C2)ccc1-n1cnc(C)c1 (centres unmarked) [Example 21, 3-phenyl-piperidine-1-carboxylic acid [3-methoxy-4-(4-methyl-1H-imidazol-1-yl)phenyl]amide monotrifluoroacetate] | 1660
COc1cc(NC(=O)N[C@@H](CO)Cc2ccccc2)ccc1-n1cnc(C)c1 [Example 23, 1-((R)-1-hydroxymethyl-2-phenylethyl)-3-[3-methoxy-4-(4-methyl-1H-imidazol-1-yl)phenyl]urea] | 1050
COc1cc(NC(=O)NCCC(c2ccccc2)c2ccccc2)ccc1-n1cnc(C)c1 [Example 24, 1-(3,3-diphenylpropyl)-3-[3-methoxy-4-(4-methyl-1H-imidazol-1-yl)phenyl]urea monotrifluoroacetate] | 220
COc1cc(NC(=O)NCC(c2ccccc2)c2ccccc2)ccc1-n1cnc(C)c1 [Example 25, 1-(2,2-diphenylethyl)-3-[3-methoxy-4-(4-methyl-1H-imidazol-1-yl)phenyl]urea monotrifluoroacetate] | 190
COc1cc(NC(=O)NCCCc2ccc(C3CCCCC3)cc2)ccc1-n1cnc(C)c1 [Example 26, 1-[3-(4-cyclohexyl-phenyl)propyl]-3-[3-methoxy-4-(4-methyl-1H-imidazol-1-yl)phenyl]urea monotrifluoroacetate] | 230
COc1cc(NC(=O)NCC(C)(C)c2ccccc2)ccc1-n1cnc(C)c1 [Example 27, 1-[3-methoxy-4-(4-methyl-1H-imidazol-1-yl)phenyl]-3-(2-methyl-2-phenylpropyl)urea monotrifluoroacetate] | 540
COc1cc(NC(=O)NC[C@H](O)c2ccccc2)ccc1-n1cnc(C)c1 [Example 29, 1-(R)-2-hydroxy-2-phenylethyl-3-[3-methoxy-4-(4-methyl-1H-imidazol-1-yl)phenyl]urea] | 3840
